# Like-named read-outs stand apart in the source and are kept apart here.
# B1: BGH: a simple protein composed of a single chain of approximately 191 amino acids (protein, UniProt P01246 27-217, looked up)
# Somatotropin: AFPAMSLSGLFANAVLRAQHLHQLAADTFKEFERTYIPEGQRYSIQNTQVAFCFSETIPAPTGKNEAQQKSDLELLRISLLLIQSWLGPLQFLSRVFTNSLVFGTSDRVYEKLKDLEEGILALMRELEDGTPRAGQILKQTYDKFDTNMRSDDALLKNYGLLSCFRKDLHKTETYLRVMKCRRFGEASCAF
# Assays:
# [1] = assay type: physicochemical; settings: arsenazo III 4.5 mM, buffer pH 7.3, 50-54 mg salt in 1 ml, MLVs washed three times
# Description: (§1) The 2-amino-2-methyl-1,3-propanediol salt of cholesterol hemisuccinate (50 mg) was added to a 1 ml solution of arsenazo III (4.5 mM, final concentration) in 0.01 M 2-amino-2-methyl-1,3-propanediol-HCl (pH 7.3), 0.07 M KCl, 0.07 M NaCl. The suspension of CHS-MLVs was formed by mixing vortically with glass beads. The CHS-MLVs were pelleted by centrifugation at 10,000×g for 15 minutes, and the resulting pellet was washed three times as described in Section 6.1.1.
# as §1, with “2-aminoethanol” for “2-amino-2-methyl-1,3-propanediol”, “2-aminoethanol-HCl” for “2-amino-2-methyl-1,3-propanediol-HCl”, “vertically” for “vortically”
# The suspension of CHS-MLVs was formed by mixing vertically with glass beads. The CHS-MLVs were pelleted by centrifugation at 10,000×g for 15 minutes, and the resulting pellet was washed three times as described in Section 6.1.1.
# as §1, with “triethanolamine” for “2-amino-2-methyl-1,3-propanediol”, “triethanolamine-HCL” for “2-amino-2-methyl-1,3-propanediol-HCl”
# [2] = cited from earlier work
# [3] = Retention of 125I-human growth hormone in the hind limb after intramuscular injection; set-up: species or system Swiss-Webster mice; settings: mouse, in vivo
# Description: A group of 12 female Swiss-Webster mice were injected intramuscularly in the hind limb with 0.5 ml of the CHS-MLV entrapped ^125I-HGH suspension. A control group of 12 mice were injected with 0.5 ml free ^125I-HGH in .01 M Tris-HCl, 0.14 M NaCl buffer. Each animal in both groups received approximately 35,000 cpm/animal. At periodic intervals post-injection, the mice were sacrificed, the hind limb dissected, and percent total radioactivity remaining was determined. […] Thus, when injected intramuscularly, the CHS-liposome entrapped drug is released in a sustained fashion.
# [4] = Entrapment of 3H-diazepam in sonicated CHS-SUVs; settings: Diazepam 5 mg/ml
# [5] = assay type: physicochemical
# Description: CHS-MLVs were prepared as described in Section 6.2 using 25 mg tris-salt CHS in 1.0 ml 0.01 M Tris-HCl (pH 7.4), 0.14 M NaCl buffer. The CHS-MLV preparation was sonicated to clarify to form sonicated CHS-SUVs and then either 5, 10, 15, 25, 30 or 166 mg BGH (Eli Lilly & Co., Indianapolis, Ind.) was added to separate aliquots of the sonicated CHS-SUV suspension. The suspensions were extensively mixed vortically, resulting in partitioning of the protein into the CHS-SUV bilayers. The sonicated CHS-SUV suspensions were visually observed for the presence of precipitate at 1, 2, and 21 days.
# CHS-MLVs were prepared as described in Section 6.2 using 25 mg tris-salt CHS in 1.0 ml 0.01 M Tris-HCl (pH 7.4), 0.14 M Nacl buffer. The CHS-MLV preparation was sonicated to clarity to form sonicated CHS-SUVs and up to 47 mg zinc-insulin powder (Boving Pancreatic Insulin, Sigma Chemical Co., St. Louis, Mo.) was added to the CHS-SUV suspension. The suspension was extensively mixed vortically, resulting in partitioning of the insulin into the CHS-SUV bilayers. The sonicatd CHS-SUVs were visually observed for the presence of precipitate at 1, 2, and 21 days. […] Insulin entrapment occurs more rapidly at 37° C.
# Small unilamellar vesicles were prepared as follows: 100 mg tylosin-base (Eli Lilly & Co., Indianapolis, Ind.) and 200 mg tris-salt CHS were mixed vertically in 4 ml phosphate buffered saline (pH 7.4). […]
molecule,measurement,setting,value
CC(C)CCC[C@@H](C)[C@H]1CC[C@H]2[C@@H]3CC=C4C[C@@H](OC(=O)CCC(=O)O)CC[C@]4(C)[C@H]3CC[C@]12C.NCCO [2-aminoethanol salt of cholesterol hemisuccinate],entrapment of arsenazo III (colour of washed pellet),[1],red in color indicating entrapment of the arsenazo III
COc1ccc2c(c1)c(CC(=O)O)c(C)n2C(=O)c1ccc(Cl)cc1 [Indomethacin],solubility in water,[2],practically insoluble in water
"^125I-HGH: free 125I-labelled human growth hormone in 0.01M Tris-HCl, 0.14M NaCl",% Radioactivity Remaining in Limb,[3]; 3 h,5%
same,% Radioactivity Remaining in Limb,[3]; 24 h,0.7%
same,% Radioactivity Remaining in Limb,[3]; 72 h,0.2%
same,% Radioactivity Remaining in Limb,[3]; 168 h,0.3%
"CC(C)CCC[C@@H](C)[C@H]1CC[C@H]2[C@@H]3CC=C4C[C@@H](OC(=O)CCC(=O)O)CC[C@]4(C)[C@H]3CC[C@]12C.NC(CO)(CO)CO [Tris-salt CHS, tris(hydroxymethyl)aminomethane salt of cholesteryl hemisuccinate]",% 3H-Diazepam Entrapped,[4]; CHS 100 mg/ml,100%
same,% 3H-Diazepam Entrapped,[4]; CHS 200 mg/ml,100%
same,entrapment of arsenazo III (colour of washed pellet),[1],red in color indicating entrapment of the arsenazo III
"Zinc-insulin: a polypeptide hormone; zinc-insulin powder, bovine pancreatic insulin from Sigma",solubility in aqueous phases,[2]; pH 4.5,practically insoluble
CC(C)CCCC(C)C1CCC2C3CC=C4CC(OC(=O)CCC(=O)O)CCC4(C)C3CCC12C.OCCN(CCO)CCO (stereo not drawn) [triethanolamine salt of cholesterol hemisuccinate],entrapment of arsenazo III (colour of washed pellet),[1],red in color indicating entrapment of the arsenazo III
"CC[C@H]1OC(=O)C[C@@H](O)[C@H](C)[C@@H](O[C@@H]2O[C@H](C)[C@@H](O[C@H]3C[C@@](C)(O)[C@@H](O)[C@H](C)O3)[C@H](N(C)C)[C@H]2O)[C@@H](CC=O)C[C@@H](C)C(=O)/C=C/C(C)=C/[C@@H]1CO[C@@H]1O[C@H](C)[C@@H](O)[C@@H](OC)[C@H]1OC [Tylosin, reference compound]",precipitate formation (visual comparison),[5]; 100 mg tylosin base in 4 ml: CHS-SUV supernatant versus suspension in water,A precipitate formed
same,solubility in water,[2]; 25° C.,5 mg/mL
"CC(C)CCC[C@@H](C)[C@H]1CC[C@H]2[C@@H]3CC=C4C[C@@H](OC(=O)CCC(=O)O)CC[C@]4(C)[C@H]3CC[C@]12C.CC(N)(CO)CO [2-amino-2-methyl-1,3-propanediol salt of cholesterol hemisuccinate]",entrapment of arsenazo III (colour of washed pellet),[1],red in color indicating entrapment of the arsenazo III
B1,"presence of precipitate at 1, 2, and 21 days","[5]; 5-166 mg BGH added to sonicated CHS-SUVs (25 mg tris-salt CHS in 1.0 ml), room temperature",No precipitate was observed

# Source: US6352716B1, “Steroidal liposomes” (The Liposome Company Inc., priority 1984, dated 2002)
